According to patent US9522920B2, “Bromodomain inhibitors and uses thereof” (Constellation Pharmaceuticals, Inc., priority 2010, dated 2016):
Where two headings read alike, the source gives them in different places.

What was measured:
BRD4(BD1) = target: T1, BRD4(BD1) (Homo sapiens, UniProt O60885); test: BRD4 AlphaLisa binding assay (Alphascreen)
T1 construct: His; made in house
Method: Specifically, in a 384 well ProxiPlate BRD4(BD1) (30 nM final) was combined with peptide (200 nM final) in 40 mM HEPES (pH 7.0), 40 mM NaCl, 1 mM DTT, 0.01% (w/v) BSA, and 0.008% (w/v) Brij-35 either in the presence of DMSO (final 1.2% DMSO) or compound dilution series in DMSO. After 20 minute incubation at room temperature Alpha streptavidin donor beads and AlphaLisa anti-Flag acceptor beads were added to a final concentration of 10 ug/mL each. After three hours equilibration plates were read on an Envision instrument and IC50s calculated using a four parameter non-linear curve fit.

IL-6 secretion = test: Cell-based IL-6 quantification assay (ELISA, Mesoscale) in LPS-stimulated THP-1 cells; conditions: read-out: IL6
Method: 100,000 THP-1 cells were seeded in RPMI1640-10% FBS in 96-well plates. LPS (E. Coli Invitrogen) in RPMI-10% FBS at a final concentration of 4 μg/mL was added to the wells and the cells are then incubated in the presence of various concentrations of compounds for 16 h. Plates are spun ([…], 5 min), an aliquot of 25 uL supernatant is transferred in to an ELISA plate (Mesoscale technology, MSD) and the detection of IL-6 is performed using manufacturer's instructions. The amount of cells in each well is assessed using CellTiter-Glo® (Promega). The ratio of ELISA value/CellTiter-Glo value is used to calculate the percent of inhibition of IL-6 secretion.

[1] = Table 6, BRD4(BD1) 30 nM, H4-tetraacetyl peptide 200 nM, read-out: BRD4 Alphascreen IC50
[2] = Homo sapiens, THP-1, 16 h, Table 7, THP-1 cells, LPS 4 μg/mL, 16 h, normalised to CellTiter-Glo
[3] = Table 14, BRD4 AlphaLisa Binding Assay, read-out: Alpha screen
[4] = Table 14, THP-1 cells, LPS, 16 h
[5] = Homo sapiens, THP-1, 16 h, Table 14, THP-1 cells, LPS, 16 h

## Cc1noc2c1-c1sc(C)c(C)c1C(C1CC1)=NC2CC(N)=O (stereo not drawn) [Compound 125]
BRD4(BD1); [1]
  IC50: > 1000 nM
IL-6 secretion; [2]
  IC50: > 1000 nM

## Cc1noc2c1-c1sc(C)c(C)c1C(c1ccn(C)c(=O)c1)=NC2CC(N)=O (stereo not drawn) [Compound 119]
BRD4(BD1); [1]
  IC50: < 500 nM
IL-6 secretion; [2]
  IC50: 500 to 1000 nM

## Cc1noc2c1-c1sc(C)c(C)c1C(c1ccccc1Cl)=NC2CC(N)=O (stereo not drawn) [Compound 111]
BRD4(BD1); [1]
  IC50: < 500 nM
IL-6 secretion; [2]
  IC50: < 500 nM

## CC(=O)NC[C@@H]1N=C(c2ccc(Cl)cc2)c2c(sc(C)c2C)-c2c(C)noc21 [Compound 182, N-(((6S)-4-(4-Chlorophenyl)-2,3,9-trimethyl-6H-isoxazolo[5,4-c]thieno[2,3-e]azepin-6-yl)methyl)acetamide]
BRD4(BD1); [1]
  IC50: < 500 nM
IL-6 secretion; [2]
  IC50: 500 to 1000 nM

## Cc1onc2c1-c1ccccc1C(c1ccc(Cl)cc1)=NC2N (stereo not drawn) [Compound 154, 6-(4-chlorophenyl)-1-methyl-4H-benzo[c]isoxazolo[4,3-e]azepin-4-amine]
BRD4(BD1); [1]
  IC50: > 1000 nM
IL-6 secretion; [2]
  IC50: > 1000 nM

## COC(=O)NC[C@@H]1N=C(c2ccc(Cl)cc2)c2c(sc(C)c2C)-c2c(C)noc21 [Compound 183, Methyl (((6S)-4-(4-chlorophenyl)-2,3,9-trimethyl-6H-isoxazolo[5,4-c]thieno[2,3-e]azepin-6-yl)methyl)carbamate]
BRD4(BD1); [1]
  IC50: < 500 nM
IL-6 secretion; [2]
  IC50: 500 to 1000 nM

## Cc1cc(Cl)ccc1C1=NC(CC(N)=O)c2onc(C)c2-c2ccccc21 (stereo not drawn) [Compound 151]
BRD4(BD1); [1]
  IC50: < 500 nM
IL-6 secretion; [2]
  IC50: < 500 nM

## Cc1onc2c1-c1ccccc1C(c1ccc(Cl)cc1)=NC2O (stereo not drawn) [Compound 153, 6-(4-chlorophenyl)-1-methyl-4H-benzo[c]isoxazolo[4,3-e]azepin-4-ol]
BRD4(BD1); [1]
  IC50: > 1000 nM
IL-6 secretion; [2]
  IC50: > 1000 nM

## Cc1noc2c1-c1sc(C)c(C)c1C(c1cccnc1)=NC2CC(N)=O (stereo not drawn) [Compound 106]
BRD4(BD1); [1]
  IC50: < 500 nM
IL-6 secretion; [2]
  IC50: < 500 nM

## Cc1noc2c1-c1sc(C)c(C)c1C(c1cc[nH]n1)=NC2CC(N)=O (stereo not drawn) [Compound 100]
BRD4(BD1); [1]
  IC50: < 500 nM
IL-6 secretion; [2]
  IC50: 500 to 1000 nM

## Cc1noc2c1-c1ccn(-c3ccc(C#N)cc3)c(=O)c1C(c1ccc(Cl)cc1)=NC2 [Compound 178, 4-(6-(4-Chlorophenyl)-1-methyl-7-oxo-4H-isoxazolo[5,4-c]pyrido[4,3-e]azepin-8(7H)-yl)benzonitrile]
BRD4(BD1); [1]
  IC50: > 1000 nM
IL-6 secretion; [2]
  IC50: > 1000 nM

## Cc1noc2c1-c1cc[nH]c(=O)c1C(c1ccc(Cl)cc1)=NC2 [Compound 176, 6-(4-Chlorophenyl)-1-methyl-4H-isoxazolo[5,4-c]pyrido[4,3-e]azepin-7(8H)-one]
BRD4(BD1); [1]
  IC50: > 1000 nM
IL-6 secretion; [2]
  IC50: > 1000 nM

## Cc1noc2c1-c1sc(C)c(C)c1C(C(C)c1ccccc1)=N[C@H]2CC(N)=O (stereo partly drawn) [Compound 195]
BRD4(BD1); [3]
  IC50: > 1000 nM
IL-6 secretion; [4]
  IC50: > 1000 nM

## Cc1noc2c1-c1sc(C)c(C)c1C(c1ccncc1)=NC2CC(N)=O (stereo not drawn) [Compound 107]
BRD4(BD1); [1]
  IC50: < 500 nM
IL-6 secretion; [2]
  IC50: < 500 nM

## Cc1noc2c1-c1ccn(-c3ccccc3)c(=O)c1C(c1ccc(Cl)cc1)=NC2 [Compound 179, 6-(4-Chlorophenyl)-1-methyl-8-phenyl-4H-isoxazolo[5,4-c]pyrido[4,3-e]azepin-7(8H)-one]
BRD4(BD1); [1]
  IC50: > 1000 nM
IL-6 secretion; [2]
  IC50: > 1000 nM

## Cc1noc2c1-c1sc(C)c(C)c1C(Nc1ccc(Cl)cc1)=N[C@H]2CC(N)=O [Compound 185, 2-((6S)-4-((4-Chlorophenyl)amino)-2,3,9-trimethyl-6H-isoxazolo[5,4-c]thieno[2,3-e]azepin-6-yl)acetamide]
BRD4(BD1); [1]
  IC50: > 1000 nM
IL-6 secretion; [2]
  IC50: > 1000 nM

## Cc1noc2c1-c1sc(C)c(C)c1C(N1CCN(C)CC1)=NC2CC(N)=O (stereo not drawn) [Compound 121]
BRD4(BD1); [1]
  IC50: > 1000 nM
IL-6 secretion; [2]
  IC50: > 1000 nM

## CCNC(=O)NC1N=C(c2ccc(F)cc2)c2ccccc2-c2c(C)noc21 (stereo not drawn) [compound 260]
BRD4(BD1); [3]
  IC50: < 500 nM

## CCOC(=O)C[C@@H]1N=C(c2ccc(Cl)cc2)c2ccccc2-c2c1noc2C [Compound 162, Ethyl 2-((4S)-6-(4-chlorophenyl)-1-methyl-4H-benzo[c]isoxazolo[4,3-e]azepin-4-yl)acetate]
BRD4(BD1); [1]
  IC50: < 500 nM
IL-6 secretion; [2]
  IC50: > 1000 nM

## Cc1noc2c1-c1sc(C)c(C)c1C(Cc1ccccc1)=N[C@H]2CC(N)=O [Compound 127, 2-((6S)-4-benzyl-2,3,9-trimethyl-6H-isoxazolo[5,4-c]thieno[2,3-e]azepin-6-yl)acetamide]
BRD4(BD1); [1]
  IC50: > 1000 nM
IL-6 secretion; [2]
  IC50: > 1000 nM

## Cc1noc2c1-c1sc(C)c(C)c1C(C1CCN(C)CC1)=N[C@H]2CC(N)=O [Compound 194]
BRD4(BD1); [3]
  IC50: > 1000 nM
IL-6 secretion; [4]
  IC50: > 1000 nM

## Cc1noc2c1-c1sc(C)c(C)c1C(c1ccn(C)n1)=NC2CC(N)=O (stereo not drawn) [Compound 101]
BRD4(BD1); [1]
  IC50: < 500 nM
IL-6 secretion; [2]
  IC50: 500 to 1000 nM

## CCNC(=O)C[C@H]1N=C(c2ccc(Cl)cc2)c2c(sc(C)c2C)-c2c(C)noc21 [Compound 167, 2-((6R)-4-(4-chlorophenyl)-2,3,9-trimethyl-6H-isoxazolo[4,5-e]thieno[3,2-c]azepin-6-yl)-N-ethylacetamide]
BRD4(BD1); BRD4 Alphascreen IC50, Table 6, BRD4(BD1) 30 nM, H4-tetraacetyl peptide 200 nM
  IC50: > 1000 nM

## CC(=O)NC1N=C(c2ccc(C#N)cc2)c2ccccc2-c2c(C)noc21 (stereo not drawn) [Compound 263, N-(6-(4-cyanophenyl)-1-methyl-4,1-benzo[c]isoxazolo[4,5-e]azepin-4-yl)acetamide]
BRD4(BD1); [3]
  IC50: < 500 nM
IL-6 secretion; [5]
  IC50: < 500 nM

## Cc1noc2c1-c1sc(C)c(C)c1C(C1CCOCC1)=N[C@H]2CC(N)=O [Compound 168, 2-((6S)-2,3,9-trimethyl-4-(tetrahydro-2H-pyran-4-yl)-6H-isoxazolo[5,4-c]thieno[2,3-e]azepin-6-yl)acetamide]
BRD4(BD1); [1]
  IC50: > 1000 nM
IL-6 secretion; [2]
  IC50: > 1000 nM

## Cc1noc2c1-c1cn(C)nc1C(c1ccc(Cl)cc1)=NC2 [Compound 265, 6-(4-chlorophenyl)-1,8-dimethyl-4,8-dihydroisoxazolo[5,4-c]pyrazolo[4,3-e]azepine]
IL-6 secretion; [5]
  IC50: > 1000 nM

## Cc1noc2c1-c1ccnc(F)c1C(c1ccc(Cl)cc1)=NC2 [Compound 169, 6-(4-Chlorophenyl)-7-fluoro-1-methyl-4H-isoxazolo[5,4-c]pyrido[4,3-e]azepine]
BRD4(BD1); [1]
  IC50: > 1000 nM
IL-6 secretion; [2]
  IC50: > 1000 nM

## Cc1onc2c1-c1ccccc1C(c1ccc(Cl)cc1)=NC2C (stereo not drawn) [Compound 156, 6-(4-chlorophenyl)-1,4-dimethyl-4H-benzo[c]isoxazolo[4,3-e]azepine]
BRD4(BD1); [1]
  IC50: < 500 nM
IL-6 secretion; [2]
  IC50: > 1000 nM

## Cc1noc2c1-c1ccn(C)c(=O)c1C(c1ccc(Cl)cc1)=NC2 [Compound 177, 6-(4-Chlorophenyl)-1,8-dimethyl-4H-isoxazolo[5,4-c]pyrido[4,3-e]azepin-7(8H)-one]
BRD4(BD1); [1]
  IC50: > 1000 nM
IL-6 secretion; [2]
  IC50: > 1000 nM

## CCNC(=O)C[C@H]1N=C(c2ccc(Cl)cc2)c2ccccc2-c2c1noc2C [Compound 189, 2-((4R)-6-(4-chlorophenyl)-1-methyl-4H-benzo[c]isoxazolo[4,3-e]azepin-4-yl)-N-ethylacetamide]
BRD4(BD1); [1]
  IC50: > 1000 nM

## Cc1noc2c1-c1ccnc(OC(C)C)c1C(c1ccc(Cl)cc1)=NC2 [Compound 171, 6-(4-Chlorophenyl)-7-isopropoxy-1-methyl-4H-isoxazolo[5,4-c]pyrido[4,3-e]azepine]
BRD4(BD1); [1]
  IC50: > 1000 nM
IL-6 secretion; Homo sapiens, THP-1, 16 h
  IC50: > 1000 nM

## CCNC(=O)NC1N=C(c2ccc(C#N)cc2)c2ccccc2-c2c(C)noc21 (stereo not drawn) [compound 261]
BRD4(BD1); [3]
  IC50: < 500 nM
IL-6 secretion; [4]
  IC50: < 500 nM

## Cc1noc2c1-c1sc(C)c(C)c1C(N1CCOCC1)=NC2CC(N)=O (stereo not drawn) [Compound 122]
BRD4(BD1); [1]
  IC50: > 1000 nM
IL-6 secretion; [2]
  IC50: > 1000 nM

## COc1nccc2c1C(c1ccc(Cl)cc1)=NCc1onc(C)c1-2 [Compound 170, 6-(4-Chlorophenyl)-7-methoxy-1-methyl-4H-isoxazolo[5,4-c]pyrido[4,3-e]azepine]
BRD4(BD1); [1]
  IC50: < 500 nM
IL-6 secretion; [2]
  IC50: > 1000 nM

## CNc1cc2c(cn1)-c1c(C)noc1CN=C2c1ccc(Cl)cc1 [Compound 258, 6-(4-Chlorophenyl)-N,1-dimethyl-4H-isoxazolo[5,4-c]pyrido[3,4-e]azepin-8-amine]
BRD4(BD1); [3]
  IC50: < 500 nM

## Cc1noc2c1-c1sc(C)c(C)c1C(c1ccnnc1)=NC2CC(N)=O (stereo not drawn) [Compound 104]
BRD4(BD1); [1]
  IC50: 500 to 1000 nM
IL-6 secretion; [2]
  IC50: 500 to 1000 nM

## Cc1noc2c1-c1sc(C)c(C)c1C(c1cccc(C(N)=O)c1)=NC2CC(N)=O (stereo not drawn) [Compound 117]
BRD4(BD1); [1]
  IC50: < 500 nM
IL-6 secretion; [2]
  IC50: < 500 nM

## Cc1noc2c1-c1ccccc1C(c1ccc(C#N)cc1)=NC2NC(=O)C(C)C (stereo not drawn) [compound 264]
BRD4(BD1); [3]
  IC50: > 1000 nM
IL-6 secretion; [4]
  IC50: > 1000 nM

## Cc1noc2c1-c1sc(C)c(C)c1C(c1cncnc1)=NC2CC(N)=O (stereo not drawn) [Compound 105]
BRD4(BD1); [1]
  IC50: > 1000 nM
IL-6 secretion; [2]
  IC50: > 1000 nM

## Cc1onc2c1-c1ccccc1C(c1ccc(Cl)cc1)=NC2 [Compound 191, 6-(4-chlorophenyl)-1-methyl-4H-benzo[c]isoxazolo[4,3-e]azepine]
BRD4(BD1); [1]
  IC50: > 1000 nM

## CCNC(=O)NC1N=C(c2ccc(OC(F)(F)F)cc2)c2ccccc2-c2c(C)noc21 (stereo not drawn) [compound 259]
BRD4(BD1); [3]
  IC50: < 500 nM
